Measurements from PubChem BioAssay (NCI).
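Cells were grown in 96-well plates and exposed to each compound for 48 hours at five concentrations; endpoints were interpolated linearly between bracketing concentrations, or set to the highest concentration if not reached. TGI: total growth inhibition.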

Key:
Assay in all cases: NCI tumour cell line growth inhibition, 48 h
[1] = test system: MOLT-4 leukemia
[2] = test system: UACC-257 melanoma
[3] = test system: OVCAR-5 ovarian
[4] = test system: A549 NSCLC
[5] = test system: U251 CNS
[6] = test system: HL-60(TB) leukemia
[7] = test system: A498 renal
[8] = test system: HCT-15 colon
[9] = test system: SK-OV-3 ovarian

Compound | TGI [1] [µM] | TGI [2] [µM] | TGI [3] [µM] | TGI [4] [µM] | TGI [5] [µM] | TGI [6] [µM] | TGI [7] [µM] | TGI [8] [µM] | TGI [9] [µM]
O=C(/C=C/c1ccc(Cl)c(Cl)c1)c1ccc2ccccc2c1 | > 100 | > 100 | > 100 | > 100 | > 100 | > 100 | > 100 | > 100 | > 100
Nc1ccccc1/C(O)=C1/CCOC1=O | > 100 | > 100 | > 100 | > 100 | > 100 | > 100 | > 100 |  | > 100
COc1cc(/C=C/c2ccc(OC)c(O)c2)cc(OC)c1 | 15.7 | 24.9 | 89.1 | 33.3 | 15 | 4.43 | > 100 | 24.2 | 86.6
O=C(CC(=O)n1nc(-c2ccccc2)c(N=Nc2ccc(Cl)cc2)c1-c1ccccc1)Nc1ccc(Cl)cc1 | > 100 | > 100 | > 100 | > 60.6 | > 100 | > 100 | > 100 | > 55.8 | > 100
CNC(=S)/N=C(\N)N(C)C | > 100 | > 10 |  | > 100 | > 100 | > 100 | > 100 | > 100 | > 100
COc1cc2[nH]c3c(c2cc1OC)CCN[C@]31CC[C@]2(CC3c4c(cc(OC)c(O)c42)CCN3C)C[C@H]1OC (stereo partly specified) | 33.8 | 37.1 | > 100 | 68.8 | 36 | 24.6 | 70.9 | 43.1 | 59.1
CCCC1=C(CC)C(C(=O)Nc2c(C)cccc2C)=NC(S)N1 (stereo unspecified) | > 100 | > 100 | > 100 | > 100 | > 100 | > 100 | > 100 | > 100 | 
c1cnn(CN(Cn2cccn2)Cn2cccn2)c1 | > 100 | > 100 |  | > 100 | > 100 | > 100 | > 100 | > 100 | > 100
COc1ccc(CN2CC(C)(C)C2=O)c(OC)c1 | > 100 | > 100 |  | > 100 | > 100 | > 100 | > 100 | > 100 | > 100
CCCCNC1CCCCC[C@H]1O (stereo partly specified) | > 100 | > 100 | > 100 | > 100 | > 100 | > 100 |  |  | > 100
COC(=O)C(Cc1nc2ccccc2[nH]c1=O)C(NO)C(=O)Nc1c(Cl)cc([N+](=O)[O-])cc1Cl (stereo unspecified) | 67 | > 100 |  | > 100 | 99 |  | 46.5 | > 100 | > 100
Cc1nnc(NS(=O)(=O)c2ccc(N=Nc3cc(N=Nc4ccc(S(=O)(=O)Nc5nnc(C)s5)cc4)c4c(NC(=O)C(Cl)Cl)cccc4c3OC(=O)C(Cl)Cl)cc2)s1 (tested in a mixture with another compound) | 33 | > 100 | 55.5 | 60.2 | > 100 | 42.4 | > 100 | > 100 | 
CCCN(CCC)C(=O)c1c([N+](=O)[O-])cc(C(F)(F)F)cc1[N+](=O)[O-] | > 100 |  | > 100 | > 100 | > 100 | 56.3 | > 100 | > 100 | > 100
O=C(N/N=C/c1cc(Br)ccc1O)N/N=C/c1cc(Br)ccc1O | > 100 | > 100 | > 100 | > 100 | > 100 | > 100 | > 100 |  | > 100
[N-]=[N+]=C1C(=O)NN=C1c1ccccc1 | > 100 | > 100 | > 100 | > 100 | > 100 | > 100 |  | > 100 | > 100
CCOC(=O)C(=O)Nc1ccccc1CC | > 100 | > 100 | > 100 | > 100 | > 100 | > 100 |  |  | > 100
O=C1c2ccccc2C(=O)C1(O)c1c[nH]c2ccccc12 | > 100 | > 100 | > 100 | > 100 | > 100 | > 100 |  | > 100 | > 100
C=C(C)CCN[Si](c1ccccc1)(c1ccccc1)C(C)(C)C | 52.6 | 29.1 |  | > 100 | 30 | 44.5 | > 100 | 48.1 | 69
COC(=O)C(CC(=O)Nc1ccc(C)cc1)C(=O)C(=O)Nc1c(C(C)C)cccc1C(C)C (stereo unspecified) | > 100 |  | > 100 | > 100 | > 100 | > 100 | > 100 | > 100 | > 100
Clc1cc(Cl)c2ns[s+]c2c1Cl | > 100 | > 100 | > 100 | > 100 | > 100 | > 100 | > 100 |  | > 100
